ChEMBL document CHEMBL6153037, “Developing dual-responsive quinolinium prodrugs of 8-hydroxyquinoline by harnessing the dual chelating sites” (Eur J Med Chem, 2025)
Active and inactive are the calls of the source. The rule behind the calls is not given here.

Assays:
MDA-MB-231 [1] = test: Induction of apoptosis in human MDA-MB-231 cells assessed as late apoptotic cells at 0.4 uM incubated for 24 hrs by Annexin V-FITC/PI staining based flow cytometry (reference value: 5.81 %); assay type: functional
MDA-MB-231 [2] = test: Induction of apoptosis in human MDA-MB-231 cells assessed as viable cells at 1.2 uM incubated for 24 hrs by Annexin V-FITC/PI staining based flow cytometry (reference value: 86.2 %); assay type: functional; details: read-out: Activity
MDA-MB-231 [3] = test: Induction of apoptosis in human MDA-MB-231 cells assessed as early apoptotic cells at 0.8 uM incubated for 24 hrs by Annexin V-FITC/PI staining based flow cytometry (reference value: 7.39 %); assay type: functional
MDA-MB-231 [4] = test: Inhibition of mitochondrial membrane potential in human MDA-MB-231 cells assessed as increase in intracellular calcium level at 0.4 to 0.8 uM incubated for 24 hrs by Fluo-4 AM dye based analysis; assay type: functional, cell-based; details: dose 0.4-0.8 µM
MCF-10A [5] = test: Induction of apoptosis in human MCF-10A cells assessed as early apoptotic cells at 1.2 uM incubated for 24 hrs by Annexin V-FITC/PI staining based flow cytometry (reference value: 2.96 %); assay type: toxicity, cell-based
[6] = Prodrug conversion in solution containing ONOO- assessed as 8-HQ release; assay type: ADME
HeLa = test: Cytotoxicity against CuCl2-treated human HeLa cells assessed as inhibition of cell viability incubated for 48 hrs by MTT assay; assay type: functional, cell-based
MDA-MB-231 [7] = test: Inhibition of mitochondrial membrane potential in human MDA-MB-231 cells assessed as decrease in ATP level at 0.4 to 0.8 uM incubated for 24 hrs by luminescence based analysis; assay type: functional, cell-based; details: dose 0.4-0.8 µM
MDA-MB-231 [8] = test: Antitumor activity against human MDA-MB-231 cells assessed as reduction in sphere volume incubated for 6 hrs followed by medium replacement without compound measured after 6 days by microscopic analysis; assay type: functional, cell-based
MCF-10A [9] = test: Induction of apoptosis in human MCF-10A cells assessed as early apoptotic cells at 0.8 uM incubated for 24 hrs by Annexin V-FITC/PI staining based flow cytometry (reference value: 2.96 %); assay type: toxicity, cell-based
MDA-MB-231 [10] = test: Induction of apoptosis in human MDA-MB-231 cells assessed as late apoptotic cells at 1.2 uM incubated for 24 hrs by Annexin V-FITC/PI staining based flow cytometry (reference value: 5.81 %); assay type: functional
MDA-MB-231 [11] = test: Antitumor activity against human MDA-MB-231 cells xenografted in BALB/c nude mouse at 20 mg/kg, iv administered every two days for 21 days relative to control; assay type: functional; details: MDA-MB-231, 504 h, time 21 day, read-out: TGI
MDA-MB-231 [12] = test: Inhibition of DNA synthesis in human MDA-MB-231 cells by EdU incorporation assay; assay type: functional, cell-based
MDA-MB-231 [13] = test: Anti-migration activity in human MDA-MB-231 cells at 0.8 uM incubated for 24 hrs by wound healing assay (reference value: 45.4 %); assay type: functional
[14] = Prodrug conversion in PBS at pH 7.4 containing H2O2 assessed as 8-HQ release by measuring retention time at 50 uM measured after 15 mins by HPLC analysis; assay type: ADME; details: buffer, pH 7.4, 0.25 h
MCF-10A [15] = test: Cytotoxicity against human MCF-10A cells assessed as increase in red fluorescence at 0.4 to 0.8 uM by Calcein AM/PI staining based analysis; assay type: toxicity, cell-based; details: dose 0.4-0.8 µM
MDA-MB-231 [16] = test: Induction of apoptosis in human MDA-MB-231 cells assessed as viable cells at 0.8 uM incubated for 24 hrs by Annexin V-FITC/PI staining based flow cytometry (reference value: 86.2 %); assay type: functional; details: read-out: Activity
MDA-MB-231 [17] = test: Cytotoxicity against LPS-treated human MDA-MB-231 cells incubated for 48 hrs by MTT assay; assay type: functional, cell-based
[18] = Stability of compound in PBS at pH 7.4 containing H2O2 assessed as compound remaining at 50 uM measured after 30 mins by HPLC analysis; assay type: physicochemical; details: buffer, pH 7.4, 0.5 h
MDA-MB-231 [19] = test: Cytotoxicity against NAC-treated human MDA-MB-231 cells incubated for 48 hrs by MTT assay; assay type: functional, cell-based
MDA-MB-231 [20] = test: Antitumor activity against human MDA-MB-231 cells xenografted in BALB/c nude mouse assessed as tumor growth inhibition at 10 to 20 mg/kg, iv administered every two days for 21 days; assay type: functional, organism-based; details: dose 10-20 mg/kg, time 21.0 day
MCF-10A [21] = test: Induction of apoptosis in human MCF-10A cells assessed as late apoptotic cells at 1.2 uM incubated for 24 hrs by Annexin V-FITC/PI staining based flow cytometry (reference value: 3.13 %); assay type: toxicity, cell-based
MDA-MB-231 [22] = test: Induction of cell cycle arrest in human MDA-MB-231 cells assessed as accumulation at G0/G1 phase at 0.4 uM by PI staining based flow cytometry (reference value: 64.6 %); assay type: functional
MCF-10A [23] = test: Induction of apoptosis in human MCF-10A cells assessed as early apoptotic cells at 0.4 uM incubated for 24 hrs by Annexin V-FITC/PI staining based flow cytometry (reference value: 2.96 %); assay type: toxicity, cell-based

CC1(C)OB(c2ccc(C[n+]3cccc4cccc(O)c43)cc2)OC1(C)C.[Br-]
Activity (MDA-MB-231 [1]): 13.2% | viability at 1.2 µM (MDA-MB-231 [2]): 6.61% | Activity (MDA-MB-231 [3]): 40.3% | inhibition (MDA-MB-231 [4]): Active | Activity (MCF-10A [5]): 2.12% | Drug metabolism [6]: metabolite_detected | IC50 (HeLa): 11.2 µM | inhibition (MDA-MB-231 [7]): Active | Activity (MDA-MB-231 [8]): Active | Activity (MCF-10A [9]): 2.18% | Activity (MDA-MB-231 [10]): 16.4% | inhibition in vivo at 20 mg/kg (MDA-MB-231 [11]): 63.1% | inhibition (MDA-MB-231 [12]): Active | Activity (MDA-MB-231 [13]): 7.3% | Retention_time [14]: 2.8 min | Activity (MCF-10A [15]): Non-toxic | viability at 0.8 µM (MDA-MB-231 [16]): 24.8% | Activity (MDA-MB-231 [17]): Active | Stability [18]: Unstable | Activity (MDA-MB-231 [19]): inactive | inhibition (MDA-MB-231 [20]): Active | Activity (MCF-10A [21]): 3.73% | Activity (MDA-MB-231 [22]): 68.1% | Activity (MCF-10A [23]): 2%
